Data reported in patent publication US20090226527A1, “Particulate-stabilized injectable pharmacutical compositions of posaconazole” (priority 2004, published 2009).
Converted amounts (≈) assume the structure as drawn. Like-named read-outs stand apart in the source and are kept apart here.

What was measured:
[1] = system: infectious agents (strains tested); test: microbe, parasite or virus in culture; format: cell-based
[2] = Solubility of Posaconazole in water; format: physicochemical
[3] = Rising Multiple Dose Study: plasma pharmacokinetics, safety, relative bioavailability of POS IV vs POS oral suspension; format: in vivo, human
Method: A rising, multiple dose assessment of the safety, tolerability, and pharmacokinetics of intravenous Posaconazole in healthy subjects was also conducted. The pharmacokinetic objectives of the study were two-fold: first, to determine the single-dose and multiple-dose pharmacokinetic (PK) profiles of POS IV in healthy subjects; and second, to determine the relative bioavailability of POS IV vs POS oral suspension administered under fed conditions. The formulation used in this study is that of Example 8.
Plasma obtained from blood samples was analyzed for POS using a validated LC-MS/MS method. Plasma pharmacokinetic parameters were determined. Safety was assessed by ECGs, clinical laboratory tests, vital signs, and adverse event monitoring.

CCC([C@@H](C)O)n1ncn(-c2ccc(N3CCN(c4ccc(OC[C@@H]5CO[C@@](Cn6cncn6)(c6ccc(F)cc6F)C5)cc4)CC3)cc2)c1=O (stereo partly shown) [Posaconazole]
MIC ([1]; Histoplasma capsulatum, read-out: Geometric Mean MIC, Histoplasma capsulatum): 0.038 µg/mL (≈ 0.0542 µM) | MIC ([1]; Histoplasma capsulatum, read-out: MIC[90], Histoplasma capsulatum): 0.25 µg/mL (≈ 0.357 µM) | MIC ([1]; Kluyveromyces marxianus, Candida kefyr, read-out: Geometric Mean MIC): 0.081 µg/mL (≈ 0.116 µM) | MIC ([1]; Kluyveromyces marxianus, Candida kefyr, read-out: MIC[90]): 0.25 µg/mL (≈ 0.357 µM) | MIC ([1]; Kluyveromyces marxianus, read-out: Geometric Mean MIC): 0.079 µg/mL (≈ 0.113 µM) | MIC ([1]; Kluyveromyces marxianus, read-out: MIC[90]): 0.063 to 0.25 µg/mL (≈ 0.0899 to 0.357 µM) | MIC ([1]; Kodamaea ohmeri, Pichia ohmeri, read-out: Geometric Mean MIC): 0.016 µg/mL (≈ 0.0228 µM) | MIC ([1]; Kodamaea ohmeri, Pichia ohmeri, read-out: MIC[90]): 0.016 µg/mL (≈ 0.0228 µM) | MIC ([1]; Lodderomyces parapsilosis, Candida parapsilosis, read-out: Geometric Mean MIC): 0.073 µg/mL (≈ 0.104 µM) | MIC ([1]; Lodderomyces parapsilosis, Candida parapsilosis, read-out: MIC[90]): 0.125 µg/mL (≈ 0.178 µM) | MIC ([1]; Meyerozyma guilliermondii, Candida guilliermondii, read-out: Geometric Mean MIC): 0.178 µg/mL (≈ 0.254 µM) | MIC ([1]; Meyerozyma guilliermondii, Candida guilliermondii, read-out: MIC[90]): 0.5 µg/mL (≈ 0.713 µM) | MIC ([1]; Microsporum audouinii, read-out: Geometric Mean MIC): 0.25 µg/mL (≈ 0.357 µM) | MIC ([1]; Microsporum audouinii, read-out: MIC[90]): 0.25 µg/mL (≈ 0.357 µM) | MIC ([1]; Microsporum canis, read-out: Geometric Mean MIC): 0.034 µg/mL (≈ 0.0485 µM) | MIC ([1]; Microsporum canis, read-out: MIC[90]): 0.5 µg/mL (≈ 0.713 µM) | MIC ([1]; Mucor spp, read-out: Geometric Mean MIC): 0.694 µg/mL (≈ 0.99 µM) | MIC ([1]; Mucor spp, read-out: MIC[90]): 16 µg/mL (≈ 22.8 µM) | MIC ([1]; Nakaseomyces glabratus, Candida glabrata, read-out: Geometric Mean MIC): 0.672 µg/mL (≈ 0.959 µM) | MIC ([1]; Nakaseomyces glabratus, Candida glabrata, read-out: MIC[90]): 2 µg/mL (≈ 2.85 µM) | MIC ([1]; Nannizzia fulva, Microsporum fulvum, read-out: Geometric Mean MIC): 0.5 µg/mL (≈ 0.713 µM) | MIC ([1]; Nannizzia fulva, Microsporum fulvum, read-out: MIC[90]): 0.5 µg/mL (≈ 0.713 µM) | MIC ([1]; Nannizzia gypsea, Microsporum gypseum, read-out: Geometric Mean MIC): 0.042 µg/mL (≈ 0.0599 µM) | MIC ([1]; Nannizzia gypsea, Microsporum gypseum, read-out: MIC[90]): 0.008 to 0.5 µg/mL (≈ 0.0114 to 0.713 µM) | MIC ([1]; Nannizzia persicolor, Microsporum persicolor, read-out: Geometric Mean MIC): 0.25 µg/mL (≈ 0.357 µM) | MIC ([1]; Nannizzia persicolor, Microsporum persicolor, read-out: MIC[90]): 0.25 µg/mL (≈ 0.357 µM) | MIC ([1]; Paecilomyces spp, read-out: Geometric Mean MIC): 0.239 µg/mL (≈ 0.341 µM) | MIC ([1]; Paecilomyces spp, read-out: MIC[90]): 0.5 µg/mL (≈ 0.713 µM) | MIC ([1]; Papiliotrema laurentii, Cryptococcus laurentii, read-out: Geometric Mean MIC): 0.095 µg/mL (≈ 0.136 µM) | MIC ([1]; Papiliotrema laurentii, Cryptococcus laurentii, read-out: MIC[90]): 0.008 to 0.5 µg/mL (≈ 0.0114 to 0.713 µM) | MIC ([1]; Paracoccidioides brasiliensis, read-out: Geometric Mean MIC, Paracoccidioides brasiliensis): 0.048 µg/mL (≈ 0.0685 µM) | MIC ([1]; Paracoccidioides brasiliensis, read-out: MIC[90], Paracoccidioides brasiliensis): 0.125 µg/mL (≈ 0.178 µM) | MIC ([1]; Penicillium spp, read-out: Geometric Mean MIC): 0.308 µg/mL (≈ 0.44 µM) | MIC ([1]; Penicillium spp, read-out: MIC[90]): 1 µg/mL (≈ 1.43 µM) | MIC ([1]; Pichia etchel, read-out: Geometric Mean MIC): 0.125 µg/mL (≈ 0.178 µM) | MIC ([1]; Pichia etchel, read-out: MIC[90]): 0.125 µg/mL (≈ 0.178 µM) | MIC ([1]; Pichia kudriavzevii, Candida krusei, read-out: Geometric Mean MIC): 0.335 µg/mL (≈ 0.478 µM) | MIC ([1]; Pichia kudriavzevii, Candida krusei, read-out: MIC[90]): 1 µg/mL (≈ 1.43 µM) | MIC ([1]; Pleurothecium obovoideum, Ramichloridium obovoideum, read-out: Geometric Mean MIC): 0.044 µg/mL (≈ 0.0628 µM) | MIC ([1]; Pleurothecium obovoideum, Ramichloridium obovoideum, read-out: MIC[90]): 0.031 to 0.063 µg/mL (≈ 0.0442 to 0.0899 µM) | MIC ([1]; Rhizomucor spp, read-out: Geometric Mean MIC): 0.016 µg/mL (≈ 0.0228 µM) | MIC ([1]; Rhizomucor spp, read-out: MIC[90]): 0.016 µg/mL (≈ 0.0228 µM) | MIC ([1]; Rhizopus spp, read-out: Geometric Mean MIC): 1 µg/mL (≈ 1.43 µM) | MIC ([1]; Rhizopus spp, read-out: MIC[90]): 4 µg/mL (≈ 5.71 µM) | MIC ([1]; Saccharomyces cerevisiae, read-out: Geometric Mean MIC): 0.249 µg/mL (≈ 0.355 µM) | MIC ([1]; Saccharomyces cerevisiae, read-out: MIC[90]): 1 µg/mL (≈ 1.43 µM) | MIC ([1]; Scedosporium apiospermum, read-out: Geometric Mean MIC): 0.173 µg/mL (≈ 0.247 µM) | MIC ([1]; Scedosporium apiospermum, read-out: MIC[90]): 1 µg/mL (≈ 1.43 µM) | MIC ([1]; Scedosporium boydii, Pseudallescheria boydii, read-out: Geometric Mean MIC): 0.365 µg/mL (≈ 0.521 µM) | MIC ([1]; Scedosporium boydii, Pseudallescheria boydii, read-out: MIC[90]): 1 µg/mL (≈ 1.43 µM) | MIC ([1]; Sporothrix schenckii, read-out: Geometric Mean MIC): 0.771 µg/mL (≈ 1.1 µM) | MIC ([1]; Sporothrix schenckii, read-out: MIC[90]): 2 µg/mL (≈ 2.85 µM) | MIC ([1]; Trichophyton mentagrophytes, read-out: Geometric Mean MIC): 0.036 µg/mL (≈ 0.0514 µM) | MIC ([1]; Trichophyton mentagrophytes, read-out: MIC[90]): 0.125 µg/mL (≈ 0.178 µM) | MIC ([1]; Trichophyton rubrum, Trichophyton raubitschekii, read-out: Geometric Mean MIC): 0.25 µg/mL (≈ 0.357 µM) | MIC ([1]; Trichophyton rubrum, Trichophyton raubitschekii, read-out: MIC[90]): 0.25 µg/mL (≈ 0.357 µM) | MIC ([1]; Trichophyton rubrum, read-out: Geometric Mean MIC): 0.047 µg/mL (≈ 0.0671 µM) | MIC ([1]; Trichophyton rubrum, read-out: MIC[90]): 0.25 µg/mL (≈ 0.357 µM) | MIC ([1]; Trichophyton soudanense, read-out: Geometric Mean MIC): 0.5 µg/mL (≈ 0.713 µM) | MIC ([1]; Trichophyton soudanense, read-out: MIC[90]): 0.5 µg/mL (≈ 0.713 µM) | MIC ([1]; Trichophyton spp, read-out: Geometric Mean MIC): 0.036 µg/mL (≈ 0.0514 µM) | MIC ([1]; Trichophyton spp, read-out: MIC[90]): 0.064 µg/mL (≈ 0.0913 µM) | MIC ([1]; Trichophyton tonsurans, read-out: Geometric Mean MIC): 0.029 µg/mL (≈ 0.0414 µM) | MIC ([1]; Trichophyton tonsurans, read-out: MIC[90]): 0.125 µg/mL (≈ 0.178 µM) | MIC ([1]; Trichosporon spp, read-out: Geometric Mean MIC): 0.63 µg/mL (≈ 0.899 µM) | MIC ([1]; Trichosporon spp, read-out: MIC[90]): 0.5 to 1 µg/mL (≈ 0.713 to 1.43 µM) | MIC ([1]; Yarrowia lipolytica, read-out: Geometric Mean MIC): 0.144 µg/mL (≈ 0.205 µM) | MIC ([1]; Yarrowia lipolytica, read-out: MIC[90]): 0.016 to 1 µg/mL (≈ 0.0228 to 1.43 µM) | Solubility in water [2]: minimally soluble in water | Dose proportionality of exposure (Cmax and AUC) ([3]; 100- to 400-mg range): approximately dose proportional | Safety and tolerability ([3]; healthy subjects, 100-400 mg): safe and well tolerated | Daily dosing needed to achieve steady-state ([3]; human, in vivo): 6 to 7 days | clearance ([3]; human, in vivo, Mean systemic clearance at steady-state): 90 to 93.3 mL/min | clearance ([3]; human, in vivo, Mean systemic clearance, single-dose administration on Day 1): 137 to 192 mL/min | half-life ([3]; human, in vivo, Single-dose half-life): 26 to 29 h | half-life ([3]; human, in vivo, plasma, read-out: Mean steady-state terminal half-life): 33 to 37 h
